According to patent US6864287B1, “Derivatives of dicarboxylic acid having pharmaceutical properties” (Bayer Aktiengesellschaft, priority 1999, dated 2005):
pIC50: −log10 of the molar value.

Legend:
arteria saphena = assay: Vasorelaxant action in vitro (phenylephrin-contracted artery rings); set-up: species or system Rabbits; settings: Oryctolagus cuniculus; rabbit arteria saphena rings, contraction induced by phenylephrin; read-out: IC50 (concentration reducing the phenylephrin-induced contraction by 50%)
Description: Vaso Relaxant Action in Vitro
Rabbits are anaesthetized by intravenous injection of thiopental sodium […] (about 50 mg/kg) and exsanguinated. The arteria saphena is removed and divided into 3 mm wide rings. The rings are individually mounted on in each case one triangular pair of hooks, open at the end, made of 0.3 mm strong special wire (Remanium®). Under a pretension, each ring is transferred into 5 ml organ baths containing a warm, carbogen-aerated Krebs-Henseleit solution at 37° C. having the following composition (mM): NaCl: 119; KCl: 4.8; CaCl2×2H2O: 1; MgSO4×7H2O: 1.4; KH2PO4: 1.2; NaHCO3: 25; glucose: 10; bovine serum albumin: 0.001%. The contractility is detected using Statham UC2 cells, amplified and digitalized by means of A/D converters (DAS-1802 HC, Keithley Instruments Munich), and recorded in parallel on linear recorders. Contractions are induced by addition of phenylephrin.
After several (in general 4) control cycles, the substance to be investigated is added in each further passage in increasing dosage, and the height of the contraction achieved under the influence of the test substance is compared with the height of the contraction achieved in the last preliminary passage. From this, the concentration which is necessary in order to reduce the contraction achieved in the preliminary control by 50% (IC50) is calculated. The standard administration volume is 5 μl. The proportion of DMSO in the bath solution corresponds to 0.1%.

Heme-free sGC = target: T1, Heme-free sGC (Rattus norvegicus, UniProt P20595); assay: Stimulation of recombinant soluble guanylate cyclase (sGC) in vitro, heme-free enzyme; format: biochemical
T1 construct: made in house; host or cells: baculovirus/Sf9 insect cells
T1 sequence (P20595 1-619): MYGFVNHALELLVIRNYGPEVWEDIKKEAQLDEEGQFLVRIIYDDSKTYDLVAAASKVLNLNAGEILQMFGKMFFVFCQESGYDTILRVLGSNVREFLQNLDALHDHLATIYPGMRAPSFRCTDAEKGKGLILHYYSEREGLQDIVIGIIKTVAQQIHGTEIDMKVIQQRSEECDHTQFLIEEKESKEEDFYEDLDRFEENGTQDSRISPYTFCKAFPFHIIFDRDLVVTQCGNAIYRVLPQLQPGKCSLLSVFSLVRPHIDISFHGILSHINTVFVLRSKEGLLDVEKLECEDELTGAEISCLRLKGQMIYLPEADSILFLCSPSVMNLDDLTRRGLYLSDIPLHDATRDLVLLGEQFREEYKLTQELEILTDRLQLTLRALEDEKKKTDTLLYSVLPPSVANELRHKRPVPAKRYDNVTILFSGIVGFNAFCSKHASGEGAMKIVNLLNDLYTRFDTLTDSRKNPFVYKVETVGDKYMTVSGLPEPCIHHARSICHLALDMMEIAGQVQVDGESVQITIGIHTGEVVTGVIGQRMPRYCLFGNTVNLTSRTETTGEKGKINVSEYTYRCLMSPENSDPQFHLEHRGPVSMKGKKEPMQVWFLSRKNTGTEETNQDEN
T1 sequence (P19686 1-690 partner): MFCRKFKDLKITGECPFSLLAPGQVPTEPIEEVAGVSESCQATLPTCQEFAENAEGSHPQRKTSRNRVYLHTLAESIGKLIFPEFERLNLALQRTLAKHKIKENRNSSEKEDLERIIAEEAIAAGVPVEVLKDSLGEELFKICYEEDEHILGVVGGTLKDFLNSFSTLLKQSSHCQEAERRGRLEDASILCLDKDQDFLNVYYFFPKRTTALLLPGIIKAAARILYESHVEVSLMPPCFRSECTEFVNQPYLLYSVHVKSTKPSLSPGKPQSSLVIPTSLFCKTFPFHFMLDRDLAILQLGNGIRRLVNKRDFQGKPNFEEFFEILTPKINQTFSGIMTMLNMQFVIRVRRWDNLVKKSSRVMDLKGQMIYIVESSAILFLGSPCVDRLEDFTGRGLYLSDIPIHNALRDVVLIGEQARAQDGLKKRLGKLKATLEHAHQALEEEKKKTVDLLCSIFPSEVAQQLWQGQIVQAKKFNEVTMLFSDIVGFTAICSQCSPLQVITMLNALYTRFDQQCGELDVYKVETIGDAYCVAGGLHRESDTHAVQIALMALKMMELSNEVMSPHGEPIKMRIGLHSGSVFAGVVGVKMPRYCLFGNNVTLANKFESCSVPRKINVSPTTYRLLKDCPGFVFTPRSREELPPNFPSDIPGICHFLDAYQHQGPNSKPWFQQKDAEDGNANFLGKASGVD
Description: (§1) Stimulation of Recombinant Soluble […] Cyclase (sGC) in Vitro
(§2) The investigation on the stimulation of recombinant soluble guanylate cyclase (sGC) and the compounds according to the invention with and without sodium nitroprusside and with and without the heme-dependent sGC inhibitor 1H-1,2,4-oxadiazole-(4,3a)-quinoxalin-1-one (ODQ) were carried out by the method described in detail in the following literature reference: M. Hoenicka, E. M. Becker, H. Apeler, T. Sirichoke, H. Schroeder. R Gerzer and J.-P. Stasch: Purified soluble guanylyl cyclase expressed in baculovirus/Sf9 system: stimulation by YC-1, nitric oxide, and carbon oxide. J. Mol, Med. 77 (1999): 14-23.
Heme-free guanylate cyclase was obtained by adding Tween 20 to the sample buffer (final concentration 0.5%).
(§3) Activation of sGC by a test substance is stated as n-fold stimulation of basal activity.

Heme-containing sGC = target: T2, Heme-containing sGC (Rattus norvegicus, UniProt P20595); assay: Stimulation of recombinant soluble guanylate cyclase (sGC) in vitro, heme-containing enzyme; format: biochemical
T2 construct: made in house; host or cells: baculovirus/Sf9 insect cells
T2 sequence (P20595 1-619): T1 sequence (P20595 1-619)
T2 sequence (P19686 1-690 partner): T1 sequence (P19686 1-690 partner)
Description: as §1, §2, §3

SMILES: O=C(O)CCCCC(/C=C/c1ccccc1OCCCCCc1ccccc1)Cc1ccccc1C(=O)O (centres unmarked) [Example 60]
- pIC50 (arteria saphena): 6.22

SMILES: CC(C)(C)c1ccc(COc2ccccc2/C=C/C(CCCCC(=O)O)Cc2ccc(C(=O)O)cc2)cc1 (centres unmarked) [Example 34]
- pIC50 (arteria saphena): 9.46

SMILES: O=C(O)CCCCC(/C=C/c1ccccc1CCc1ccccc1)Cc1ccc(C(=O)O)cc1 (centres unmarked) [Example 23]
- pIC50 (arteria saphena): 7.59

SMILES: O=C(O)CCCCC(CCc1ccccc1OCCCCCc1ccccc1)Cc1ccc(C(=O)O)cc1 (centres unmarked) [Example 41]
- pIC50 (arteria saphena): 8.55

SMILES: CCc1ccc(COc2ccccc2/C=C/C(CCCCC(=O)O)Cc2ccc(C(=O)O)cc2)cc1 (centres unmarked) [Example 35]
- pIC50 (arteria saphena): 8.77

SMILES: N#Cc1ccc(CC(/C=C/c2ccccc2OCCCCCc2ccccc2)CCCCC(=O)O)cc1 (centres unmarked) [Example 13]
- pIC50 (arteria saphena): 5.59

SMILES: Cc1ccc(/C=C/C(CCCCC(=O)O)Cc2ccc(C(=O)O)cc2)c(OCc2ccccc2)c1 (centres unmarked) [Example 12]
- pIC50 (arteria saphena): 6.95

SMILES: O=C(O)CCCCC(CCCc1cccc(OCCCCc2ccccc2)c1)Cc1ccc(C(=O)O)cc1 (centres unmarked) [Example 44, 6-(4Carboxybenzyl)-9-(3-(4-phenylbutoxy)phenyl)nonanoic acid]
- pIC50 (arteria saphena): 5.11

SMILES: O=c1onc2cnc3ccccc3n12 [ODQ, 1H-1,2,4-oxadiazole-(4,3a)-quinoxalin-1-one, reference compound]
- Stimulation (n-fold), ODQ alone (Heme-free sGC; ODQ 10 μM, no Ex. 16 (0 μM)): 1 n-fold
- Stimulation (n-fold), ODQ alone (Heme-containing sGC; ODQ 10 μM, no Ex. 16 (0 μM)): 1 n-fold

SMILES: O=C(O)CCCCC(/C=C/c1ccccc1OCc1ccccc1Cl)Cc1ccc(C(=O)O)cc1 (centres unmarked) [Example 14]
- pIC50 (arteria saphena): 8.06

SMILES: O=C(O)CCCCC(CCc1ccccc1CCc1ccccc1)Cc1ccc(C(=O)O)cc1 (centres unmarked) [Example 40]
- pIC50 (arteria saphena): 7.39

SMILES: O=C(O)CCCCC(/C=C/c1ccccc1OCCCOc1ccccc1)Cc1ccc(C(=O)O)cc1 (centres unmarked) [Example 24]
- pIC50 (arteria saphena): 5.21

SMILES: O=C(O)CCCCC(/C=C/c1ccccc1OCCCCCc1ccccc1)Cc1ccc(C(=O)O)cc1 (centres unmarked) [Example 16]
- pIC50 (arteria saphena): 8.30
- Stimulation (n-fold), + ODQ (10 μM) (Heme-free sGC; 0.1 μM Ex. 16): 12 n-fold
- Stimulation (n-fold), + ODQ (10 μM) (Heme-free sGC; 1.0 μM Ex. 16): 94 n-fold
- Stimulation (n-fold), + ODQ (10 μM) (Heme-free sGC; 10 μM Ex. 16): 291 n-fold
- Stimulation (n-fold), Basal (Heme-free sGC; 0.1 μM Ex. 16): 11 n-fold
- Stimulation (n-fold), Basal (Heme-free sGC; 1.0 μM Ex. 16): 54 n-fold
- Stimulation (n-fold), Basal (Heme-free sGC; 10 μM Ex. 16): 204 n-fold
- Stimulation (n-fold), + ODQ (10 μM) (Heme-containing sGC; 0.1 μM Ex. 16): 27 n-fold
- Stimulation (n-fold), + ODQ (10 μM) (Heme-containing sGC; 1.0 μM Ex. 16): 52 n-fold
- Stimulation (n-fold), + ODQ (10 μM) (Heme-containing sGC; 10 μM Ex. 16): 88 n-fold
- Stimulation (n-fold), + SNP (0.1 μM) (Heme-containing sGC; 0.1 μM Ex. 16): 14 n-fold
- Stimulation (n-fold), + SNP (0.1 μM) (Heme-containing sGC; 1.0 μM Ex. 16): 33 n-fold
- Stimulation (n-fold), + SNP (0.1 μM) (Heme-containing sGC; 10 μM Ex. 16): 29 n-fold
- Stimulation (n-fold), Basal (Heme-containing sGC; 0.1 μM Ex. 16): 4 n-fold
- Stimulation (n-fold), Basal (Heme-containing sGC; 1.0 μM Ex. 16): 9 n-fold
- Stimulation (n-fold), Basal (Heme-containing sGC; 10 μM Ex. 16): 19 n-fold
